Common to all, as to format: in vivo
The test system of one test is mites. The test is described as follows: Spot-on Test (Extermination Test on Mites) in dogs. Conditions: dogs naturally infected; spot-on to back of neck, 5 mg/kg of Reference Example 1 (10 g : 3.8 g fipronil per 100 ml); examined three days after administration. As to the method:
Compound (10 g) of Reference Example 1 and fipronil (3.8 g) were mixed. This mixture was dissolved in a mixed solvent (9:1) of benzyl alcohol and propylene carbonate so as to be a total volume of 100 ml, and 0.05% of BHT was further added to prepare a formulation for the spot-on test. Further, as a control, formulations were prepared by using each of the compound of Reference Example 1 solo and fipronil solo to carry out the test.
The above-described formulation for spot-on test was dropped to the back part of the neck of each dog (two dogs in each test location) naturally infected with mites at a dose of 5 mg/kg of the compound in Reference Example 1. In each dog, infection with mites was examined three days after the dropwise administration.

The subject of the next test is Toxocara canis. The test is described as follows: Oral Test in dogs naturally infected with Toxocara canis. Conditions: single oral dose in gelatine capsule (Reference Example 1 5 mg/kg, praziquantel 1.25 mg/kg), postmortem on 10th day. The procedure: (§1) Compound (5 mg/kg) of Reference Example 1 and praziquantel (1.25 mg/kg) were encapsulated into gelatine to a predetermined amount to prepare a formulation for Oral Test. Incidentally, formulations were prepared as controls by using each of the compound of Reference Example 1 solo and fipronil solo to carry out the test.
(§2) The formulation was administered orally once to dogs (two dogs in each test location) naturally infected with Dipylidium caninum and Toxocara canis. Incidentally, the infection with Dipylidium caninum was confirmed by the excretion of proglottid of Dipylidium caninum into faeces three days before administration of drugs. The infection with Toxocara canis was confirmed by the excretion of eggs of Toxocara canis into faeces immediately before administration of drugs. On the 10th day after the administration of drugs, the dogs were subjected to postmortem to count the number of surviving Dipylidium caninum and Toxocara canis.

The subject of the next test is Dipylidium caninum. The test is described as follows: Oral Test in dogs naturally infected with Dipylidium caninum. Conditions: single oral dose in gelatine capsule (Reference Example 1 5 mg/kg, praziquantel 1.25 mg/kg), postmortem on 10th day. As to the method: as §1, §2

This is an account of results in patent publication US20040254125A1, “Anthelmintic composition” (priority 2001, published 2004).

With `N#Cc1nn(-c2c(Cl)cc(C(F)(F)F)cc2Cl)c(N)c1[S+]([O-])C(F)(F)F` (stereo not drawn) [fipronil], the “treating infection with mites” value in the test on mites is on record as “ineffective”.

As for “13-[1-(4-methoxyacetylaminophenyl) cyclopentanecarbonyloxy]-5-hydroxy-milbemycin A4 [Reference Example 1]”, the “exterminating Toxocara canis (number of surviving parasites at postmortem)” value in the test with Toxocara canis is reported as “effective”. For the same molecule, in the test on Dipylidium caninum, the “exterminating Dipylidium caninum (number of surviving parasites at postmortem)” value is on record as “ineffective”. Moreover, the “treating infection with mites” value with mites is reported as “ineffective”.

With `O=C(C1CCCCC1)N1CC(=O)N2CCc3ccccc3C2C1` (stereo not drawn) [praziquantels, praziquantel], the “exterminating Toxocara canis (number of surviving parasites at postmortem)” value in the test on Toxocara canis is “ineffective”. Also, the “exterminating Dipylidium caninum (number of surviving parasites at postmortem)” value with Dipylidium caninum is reported as “effective”.
